Laboratory results taken from article PMC7774954, “Interactomic affinity profiling by holdup assay: Acetylation and distal residues impact the PDZome-binding specificity of PTEN phosphatase” (PLoS ONE, 2020).
*1 amine or outer side, *2 acyl side, *3 side chain or, on linkers, in order; H or OH if unused. Where a SMILES comes first, the peptide text is derived from it. The star is where a group is joined. X1 = O=C(CCCC[C@@H]1SC[C@@H]2NC(=O)N[C@@H]21)NCCCOCCOCCOCCCN*; Suc = O=C(CCC(=O)[*:2])[*:1]

Tested on: 266 human PDZ domains (PDZome)
Experiment: Holdup assay (chromatographic retention, PDZome-binding profile, BI)
Set-up: key to maximal BI / Max BI / BI: binding intensity: 0.00 = no binding, 1.00 = maximal binding; Log(Kd): unit not given here
Procedure: The holdup method is a chromatographic approach in solution developed in our group that allows to measure the binding strength of a peptide, attached to a resin, against a library of domains of a same family. We initially proposed this method to explore the interaction between PBM peptides and the human PDZ domains. Briefly, a soluble cell lysate containing individually overexpressed PDZ domain is incubated until equilibrium with a calibrated amount of streptavidin-resin saturated either with the target biotinylated PBM peptide or with biotin as a reference. The flow-throughs containing the unbound protein fraction are recovered by filtration and loaded on a capillary electrophoresis instrument to quantify the amount of remaining free PDZ. The stronger the steady-state depletion of the PDZ domain in the flow-through as compared to the reference, the stronger the PDZ/PBM binding interaction. The assay is particularly suited to quantitatively evaluate and compare large numbers of interactions. This method delivers, for each PBM/PDZ pair, a "binding intensity" (BI), whose value can in principle range from 0.00 (no binding event detected) to 1.00 (maximal binding event). The approach has been automated and the human PDZ library was recently extended to the complete 266 PDZ domains known in human proteome. […] The high accuracy and efficiency of the holdup assay have been validated previously. Very recently, a manual version of the holdup assay with purified samples and using widespread benchtop equipment has been implemented and has proven to be reliable.
The 266 PDZ domains that constitute the PDZ library (“PDZome V.2”) used in the present work were produced using constructs with optimized boundaries as described previously. All the genes were fused to Maltose-Binding Protein (MBP) or Thioredoxin (THR) tag often used to facilitate the solubilisation of the over-expressed protein, by cloning them into the pETG41A or pETG20A plasmid, respectively. […] The expressed tag-PDZ concentrations were quantified using capillary gel electrophoresis and cell lysates were diluted to reach approximately 5 μM tag-PDZ before freezing in 96-well plates. A detailed protocol of the PDZ library production, expression and benchmarking can be found in [32]. PDZ domains are named according to their originating protein name followed by the PDZ number (e.g. NHERF1-1 as the first PDZ domain of the NHERF1 protein).
The holdup assay was performed on a Tecan freedom Evo200 robot with 384-well plates in singlicate for the three 11-mer PTEN variants and the 13-mer PTEN peptide as described in [31, 32]. Briefly, prior to interaction assay, 2.5 μL of streptavidin resin was saturated in each well with 20 μL of biotinylated PBM peptides (42 μM) and then washed twice with an excess of free biotin, while the reference resin was incubated only with biotin. Right before the holdup experiment, the PDZ library was spiked with an internal standard of lysozyme. Then, the biotin- or PBM-saturated resin was incubated, each in a distinct well of a 384-well plate, with complete cell lysates diluted so that the concentration of the tag-PDZ present in the crude extract is adjusted at 4 μM. After a sufficient time to reach complex equilibrium (15 min.), a fast and mild filtration step is performed and the tag-PDZ concentrations were measured by capillary electrophoresis instrument (LabChip GXII, PerkinElmer, Massachusets, USA). Standard markers were used to convert migration time into molecular weight on the LabChip software and inappropriate molecular weight markers were corrected or excluded.
Holdup data quality check and processing […]

[1] = PDZ domain PARD3-1, first of two lines so named (r186)

Structure (SMILES): CC[C@H](C)[C@H](NC(=O)[C@H](CCC(N)=O)NC(=O)[C@@H](NC(=O)[C@H](Cc1c[nH]cn1)NC(=O)[C@H](CCC(N)=O)NC(=O)[C@H](CC(=O)O)NC(=O)[C@H](CCC(=O)O)NC(=O)[C@H](CC(=O)O)NC(=O)[C@H](Cc1ccccc1)NC(=O)[C@@H]1CCCN1C(=O)CCC(=O)NCCCOCCOCCOCCCNC(=O)CCCC[C@@H]1SC[C@@H]2NC(=O)N[C@@H]21)[C@@H](C)O)C(=O)N[C@H](C(=O)N[C@@H](CCCCN)C(=O)N[C@H](C(=O)O)C(C)C)[C@@H](C)O [PTEN_13] ({X1-Suc}-PFDEDQHTQITKV-OH)
- number of additional new PDZ partners not detected for PTEN_11 (BI>0.20, compared with PTEN_11): 24
- BI (PDZ domain MPDZ-2): 0.095
- BI (PDZ domain MPDZ-3): 0.139
- BI (PDZ domain MPDZ-4): 0.035
- BI (PDZ domain MPDZ-5): -0.002
- BI (PDZ domain MPDZ-6): -0.029
- BI (PDZ domain MPDZ-7): 0.23
- BI (PDZ domain MPDZ-8): 0.039
- BI (PDZ domain MPDZ-9 (gene NHERF2, 2)): -0.021
- BI (PDZ domain MPDZ-12): 0.024
- BI (PDZ domain MPDZ-13): 0.225
- BI (PDZ domain MPP1-1): -0.074
- BI (PDZ domain MPP2-1): -0.014
- BI (PDZ domain MPP3-1): -0.03
- BI (PDZ domain MPP4-1): 0
- BI (PDZ domain MPP5-1): 0.002
- BI (PDZ domain MPP6-1): -0.068
- BI (PDZ domain MPP7-1): -0.02
- BI (PDZ domain NHERF1-2): 0.132
- BI (PDZ domain NHERF3-1): 0.161
- BI (PDZ domain NHERF3-2): 0.06
- BI (PDZ domain NHERF3-3): 0.068
- BI (PDZ domain NHERF3-4): -0.008
- BI (PDZ domain NHERF4-1): 0.09
- BI (PDZ domain NHERF4-2): 0.132
- BI (PDZ domain NHERF4-3): 0.208
- BI (PDZ domain NHERF4-4): -0.036
- BI (PDZ domain NOS1-1): 0.002
- BI [1]: 0.146
- Log(Kd) [1]: 4.018
- BI (PDZ domain PARD3-2): -0.023
- BI (PDZ domain PARD3B-1): -0.096
- BI (PDZ domain PARD3B-2): 0.088
- BI (PDZ domain PARD3B-3): 0.134
- BI (PDZ domain PARD6A-1): -0.115
- BI (PDZ domain PARD6G-1): -0.065
- BI (PDZ domain PCLO-1): -0.006
- BI (PDZ domain PDLIM1-1): -0.067
- BI (PDZ domain PDLIM2-1): -0.078
- BI (PDZ domain PDLIM3-1): 0.139
- BI (PDZ domain PDLIM4-1): 0.003
- BI (PDZ domain PDLIM5-1): -0.025
- BI (PDZ domain PDLIM7-1): 0.039
- BI (PDZ domain PDZD2-1): -0.006
- BI (PDZ domain PDZD2-2): 0.054
- BI (PDZ domain PDZD2-3): -0.045
- BI (PDZ domain PDZD2-4): 0.107
- BI (PDZ domain PDZD2-5): 0.195
- BI (PDZ domain PDZD2-6): -0.066
- BI (PDZ domain PDZD4-1): 0.025
- BI (PDZ domain PDZD7-1): -0.034
- BI (PDZ domain PDZD7-2): -0.061
- BI (PDZ domain PDZD7-3): 0.811
- BI (PDZ domain PDZD8-1): 0.038
- BI (PDZ domain PDZD9-1): 0.075
- BI (PDZ domain PDZD11-1): -0.022
- BI (PDZ domain PDZRN3-1): 0.024
- BI (PDZ domain PDZRN3-2): 0.032
- BI (PDZ domain PDZRN4-1): -0.022
- BI (PDZ domain PDZRN4-2): -0.019
- BI (PDZ domain PICK1-1): 0.089
- BI (PDZ domain PPP1R9A-1): -0.068
- BI (PDZ domain PPP1R9B-1): -0.064
- BI (PDZ domain PREX1-1): -0.02
- BI (PDZ domain PREX1-2): 0.087
- BI (PDZ domain PREX2-1): 0.032
- BI (PDZ domain PREX2-2): -0.046
- BI (PDZ domain PRX-1): -0.006
- BI (PDZ domain PSCDBP-1): 0.094
- BI (PDZ domain PSMD9-1): 0.022
- BI (PDZ domain PTPN3-1): 0.015
- BI (PDZ domain PTPN4-1): 0.026
- BI (PDZ domain PTPN13-1): 0.009
- BI (PDZ domain PTPN13-3): -0.036
- BI (PDZ domain PTPN13-5): 0.022
- BI (PDZ domain RADIL-1): 0.092
- BI (PDZ domain RAPGEF2-1): -0.023
- BI (PDZ domain RAPGEF6-1): -0.02
- BI (PDZ domain RGS3-1): 0.249
- BI (PDZ domain RGS12-1): 0.04
- BI (PDZ domain RHPN1-1): 0.479
- BI (PDZ domain RHPN2-1): 0.033
- BI (PDZ domain RIMS1-1): -0.009
- BI (PDZ domain RIMS2-1): -0.031
- BI (PDZ domain SCRIB-1): 0.173
- BI (PDZ domain SCRIB-2): -0.031
- BI (PDZ domain SCRIB-4): -0.007
- BI (PDZ domain SDCBP2-1): 0.022
- BI (PDZ domain SDCBP2-2): -0.007
- BI (PDZ domain SDCBP-2): -0.032
- BI (PDZ domain SHROOM2-1): -0.059
- BI (PDZ domain SHROOM3-1): -0.047
- BI (PDZ domain SHROOM4-1): -0.086
- BI (PDZ domain SIPA1-1): -0.045
- BI (PDZ domain SIPA1L1-1): 0.023
- BI (PDZ domain SIPA1L2-1): -0.04
- BI (PDZ domain SIPA1L3-1): -0.026
- BI (PDZ domain SNTA1-1): 0.142
- BI (PDZ domain SNTB1-1): 0.224
- BI (PDZ domain SNTG1-1): 0.14
- BI (PDZ domain SNTG2-1): 0.015
- number of PDZ domains identified as potential binders (BI>0.20) (holdup, singlicate, threshold BI>0.20): 24 PDZ domains
- maximal BI (holdup, singlicate, highest BI in the PDZome profile, BI standard error ~0.07): 0.81
- effect on PDZ binding profile (in words) (holdup/FP profile, compared with PTEN_11): markedly stronger compared to the affinities observed for the same PDZ partners in PTEN_11
- Max BI (maximum over PDZome): 0.88
